Data reported in patent US6362369B1, “Phthalic acid diamide derivatives fluorine-containing aniline compounds as starting material, agricultural and horticultural insecticides, and a method for application of the insecticides” (Nihon Nohyaku Co., Ltd., priority 1997, dated 2002).

Columns and labels:
Assay type in all cases: in vivo
[1] = tested on: diamondback moth (Plutella xylostella); assay: Insecticidal effect on diamondback moth (Test Example 1); conditions: diamondback moth; for Insecticidal effect (Test Example 1), judged from mortality: judged by the criterion of Test Example 1; for Insecticidal effect, Test Example 1: judged by the mortality criterion of Test Example 1
In short: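 Oviposition by adults on Chinese cabbage seedling; immersion; air-dry; 25° C room. Count of hatched larvae at day 6 post-immersion → mortality → effect graded by criterion. Triplicate, 10 insects/group.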

[2] = tested on: rice leafroller (Cnaphalocrocis medinalis); assay: Insecticidal effect on rice leafroller (Test Example 3); conditions: 500 ppm, 25° C., humidity 70%; for Insecticidal effect (Test Example 3), judged from mortality: 4 days after inoculation; for Insecticidal effect, Test Example 3: rice lamina immersed
In short: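 Insecticidal effect is judged by a predefined criterion from dead/alive counts four days after infesting air-dried lamina with third-instar larvae, kept on moistened filter paper at 25° C, 70% humidity.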

[3] = tested on: common cutworm (Spodoptera Litura); assay: Insecticidal effect on common cutworm (Test Example 2); conditions: 500 ppm, 25° C.; for Insecticidal effect (Test Example 2), judged from mortality: 8 days after inoculation; for Insecticidal effect, Test Example 2: cabbage leaf immersed
In short: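 Air-dried treated material was placed in a closed dish with second-instar larvae and held at 25° C. Dead and live insects were counted eight days after inoculation, and mortality was calculated and scored against a fixed insecticidal-effect criterion. Three replicate groups of 10 insects were used.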

[4] = rice lamina dip, third-instar larvae of rice leafroller
[5] = cabbage leaf dip, second-instar larvae of common cutworm
[6] = third-instar larvae of rice leafroller, four days after inoculation
[7] = second-instar larvae of common cutworm, eight days after inoculation

Compound | Insecticidal effect (Test Example 1), judged from mortality [1] | Insecticidal effect (Test Example 2), judged from mortality [3, 5] | Insecticidal effect, Test Example 1 [1] | Insecticidal effect, Test Example 3 [2, 6] | Insecticidal effect, Test Example 2 [3, 7] | also measured
Cc1cc(C(F)(F)C(F)(F)F)ccc1NC(=O)c1cccc(Cl)c1C(=O)NC(C)(C)C(Br)CBr (racemic) [compound 1603] | A (100) | A (100) | – | – | – | Insecticidal effect (Test Example 3), judged from mortality [2, 4]: A (100)
CC(C)NC(=O)c1c(I)cccc1C(=O)Nc1ccc2c(c1Cl)OC(F)(F)C(F)O2 (racemic) [compound 1679] | A (100) | A (100) | – | – | – | Insecticidal effect (Test Example 3), judged from mortality [2, 4]: A (100)
CC(C)NC(=O)c1c(I)cccc1C(=O)Nc1ccc2c(c1Cl)OC(F)C(F)(F)O2 (racemic) [compound 1680] | A (100) | A (100) | – | – | – | Insecticidal effect (Test Example 3), judged from mortality [2, 4]: A (100)
Cc1cc(OC(F)(F)C(F)F)ccc1NC(=O)c1cccc(Cl)c1C(=O)NC(C)C [Compound No. 141, 3-chloro-N^1-[4-(1,1,2,2-tetrafluoroethoxy)-2-methylphenyl]-N^2-isopropylphthalic acid diamide] | – | – | A (100) | A (100) | A (100) | –
Cc1cc(OC(F)(F)C(F)F)ccc1NC(=O)c1c(Cl)cccc1C(=O)NC(C)C [Compound No. 239, 6-chloro-N^1-[4-(1,1,2,2-tetrafluoroethoxy)-2-methylphenyl]-N^2-isopropylphthalic acid diamide] | – | – | A (100) | A (100) | A (100) | –
CC(C)NC(=O)c1c(Br)cccc1C(=O)Nc1ccc(OC(F)(F)F)cc1 [Compound No. 262, 3-bromo-N^1-(4-trifluoromethoxyphenyl)-N^2-isopropylphthalic acid diamide] | – | – | A (100) | D (79-50) | A (100) | –
Cc1cc(C(F)(F)C(F)(F)C(F)(F)C(F)(F)F)ccc1NC(=O)c1cccc(Br)c1C(=O)NC(C)C [Compound No. 281, 3-bromo-N^1-(4-nonafluorobutyl-2-methylphenyl)-N^2-isopropyl-phthalic acid diamide] | – | – | A (100) | A (100) | A (100) | –
Cc1ccc(Cl)cc1NC(=O)c1cccc([N+](=O)[O-])c1C(N)=O [compound 1] | – | – | D (79-50) | A (100) | D (79-50) | –
CCNC(=O)c1c(Cl)cccc1C(=O)Nc1ccc(OC(F)F)cc1C [compound 8] | – | – | A (100) | A (100) | A (100) | –
CCNC(=O)c1c(C(=O)Nc2cc(Cl)ccc2C)cccc1[N+](=O)[O-] [compound 10] | – | – | A (100) | D (79-50) | D (79-50) | –
CCNC(=O)c1c(C(=O)Nc2ccc(OC(F)F)cc2C)cccc1[N+](=O)[O-] [compound 11] | – | – | A (100) | C (89-80) | C (89-80) | –
CC(C)NC(=O)c1ccccc1C(=O)Nc1ccc(C(F)(F)C(F)(F)C(F)(F)F)cc1 [compound 27] | – | – | A (100) | C (89-80) | A (100) | –
CC(C)NC(=O)c1ccccc1C(=O)Nc1ccc(OC(F)(F)F)cc1 [compound 29] | – | – | A (100) | A (100) | B (99-90) | –
CC(C)NC(=O)c1ccccc1C(=O)Nc1ccc(OC(F)(F)C(F)OC(F)(F)C(F)(F)C(F)(F)F)cc1 (centres unmarked) [compound 30] | – | – | A (100) | A (100) | A (100) | –
CC(C)NC(=O)c1ccccc1C(=O)Nc1ccc(Cl)cc1Cl [compound 42] | – | – | A (100) | A (100) | D (79-50) | –
CC(C)NC(=O)c1ccccc1C(=O)Nc1ccc(OC(F)(F)F)cc1Cl [compound 47] | – | – | A (100) | A (100) | D (79-50) | –
CC(C)NC(=O)c1ccccc1C(=O)Nc1ccc(OC(F)(F)F)cc1Br [compound 48] | – | – | A (100) | A (100) | B (99-90) | –

Compound | Insecticidal effect (Test Example 1), judged from mortality [1] | Insecticidal effect (Test Example 2), judged from mortality [3, 5] | Insecticidal effect, Test Example 1 [1] | Insecticidal effect, Test Example 3 [2, 6] | Insecticidal effect, Test Example 2 [3, 7] | also measured
Cc1c(Cl)cccc1NC(=O)c1ccccc1C(=O)NC(C)C [compound 49] | – | – | A (100) | A (100) | A (100) | –
Cc1cc(Cl)ccc1NC(=O)c1ccccc1C(=O)NC(C)C [compound 50] | – | – | A (100) | A (100) | A (100) | –
Cc1cc(Br)ccc1NC(=O)c1ccccc1C(=O)NC(C)C [compound 52] | – | – | A (100) | A (100) | A (100) | –
Cc1cc(OC(F)(F)C(F)(Cl)Cl)ccc1NC(=O)c1c(Cl)cccc1C(=O)NC(C)C [compound 228] | – | – | – | A (100) | B (99-90) | –
CC(C)NC(=O)c1cccc(Cl)c1C(=O)Nc1ccc(C(F)(C(F)(F)F)C(F)(F)F)cc1Cl [compound 231] | – | – | – | A (100) | B (99-90) | –
Cc1ccc(NC(=O)c2cccc(Br)c2C(=O)NC(C)C)c(C)c1 [compound 264] | – | – | – | A (100) | D (79-50) | –
Cc1cc(OC(F)(F)C(F)(Cl)Cl)ccc1NC(=O)c1c(I)cccc1C(=O)NC(C)C [compound 445] | – | – | – | – | – | Insecticidal effect on rice leafroller (Test Example 3), judged grade ([2]; rice lamina dip, third-instar larvae, four days after inoculation): A (100); Insecticidal effect on common cutworm (Test Example 2), judged grade ([3]; cabbage leaf dip, second-instar larvae, eight days after inoculation): B (99-90)
Cc1cc(OC(F)F)ccc1NC(=O)c1c(Cl)cccc1C(=O)NCc1ccccc1Cl [compound 1424] | – | – | – | – | – | Insecticidal effect, Test Example 3 ([2]; rice leafroller third-instar larvae, four days after inoculation): A (100); Insecticidal effect, Test Example 2 ([3]; common cutworm second-instar larvae, eight days after inoculation): A (100)
Cc1cc(C(F)(F)C(F)(F)F)c(C)cc1NC(=O)c1cccc(I)c1C(=O)NC(C)(C)C [compound 1656] | – | A (100) | – | – | – | Insecticidal effect (Test Example 3), judged from mortality [2, 4]: A (100)
CC(C)NC(=O)c1c(I)cccc1C(=O)Nc1ccc(C(F)(C(F)(F)F)C(F)(F)F)cc1C(C)C [compound 1691] | A (100) | A (100) | – | – | – | –
CCOc1cc(C(F)(C(F)(F)F)C(F)(F)F)ccc1NC(=O)c1cccc(I)c1C(=O)NC(C)C [compound 1693] | A (100) | A (100) | – | – | – | –
CC(C)NC(=O)c1c(I)cccc1C(=O)Nc1ccc(C(F)(C(F)(F)F)C(F)(F)F)c(F)c1 [compound 1695] | A (100) | A (100) | – | – | – | –
CC(C)(C)NC(=O)c1c(I)cccc1C(=O)Nc1ccc(C(F)(C(F)(F)F)C(F)(F)F)c(F)c1 [compound 1696] | A (100) | A (100) | – | – | – | –
CC(C)NC(=O)c1c(I)cccc1C(=O)Nc1ccc(C(F)(C(F)(F)F)C(F)(F)F)c(Cl)c1 [compound 1697] | A (100) | A (100) | – | – | – | –
CC(C)NC(=O)c1c(I)cccc1C(=O)Nc1ccc(C(F)(C(F)(F)F)C(F)(F)F)cc1Br [compound 1699] | A (100) | A (100) | – | – | – | –
CSc1cc(C(F)(F)C(F)(F)F)ccc1NC(=O)c1cccc(I)c1C(=O)NC(C)C [compound 1700] | A (100) | D (79-50) | – | – | – | –
